Where “and” joins values, the source holds several entries; their conditions need not be identical. Equal entries are not always repeated. Calls of active or inactive are those of the source.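 The calls were made as follows: active = fitted curve reaches a 40% rise in lysis activity at or below the top valid tested dose; inconclusive = flat curve holding a 30 to 70% rise, or poor fit; inactive = signal moving opposite to the expected rise, and the rest.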
Columns and labels:
[1] = test system: Cryptococcus neoformans lysis, adenylate kinase release luminescence, 4 h; assay: Cryptococcus neoformans cell lysis inducers, dose response, AK release luminescence, dry powder (AID 743159)
[2] = as above; details: Cryptococcus neoformans lysis, adenylate kinase release luminescence, 4 h; at 15 µM (top of the series)

Row | Compound | AC40 [1] | lysis activity increase [2]
1 | COC(=O)C1=C(C)N(Cc2ccc(Br)cc2)C(=S)NC1c1ccc(F)cc1 (stereo not given) | 681 nM | –
2 | CCOC(=O)c1c(NC(=O)CNCCN(C)C)sc(C)c1-c1ccccc1 | – | 16.9% (inactive)
3 | Fc1cccc2c1[nH]c(=S)n2CCOc1ccccc1 | 1500 nM | –
4 | COC(=O)C1=C(C)N(Cc2ccccc2)C(=S)NC1c1ccc(Br)cc1 (stereo not given) | 1810 nM | –
5 | Cc1ccc(C(C)C)c(OCCn2c(=S)[nH]c3ccccc32)c1 | 232 nM | –
6 | CCOC(=O)c1c(-c2ccc(OC)cc2)csc1NC(=O)CN(C)CC(=O)N(C)C | – | -2.9% (inactive)
7 | COC(=O)C1=C(C)N(Cc2ccc(Cl)cc2)C(=S)NC1c1ccc(Br)cc1 (stereo not given) | 454 nM | –
8 | c1ccc(OCCn2cnc3ccccc32)cc1 | > 15000 nM (inactive) | –
9 | CCOC(=O)c1c(NC(=O)CN2CCN(C)CC2)sc(C)c1-c1ccc(C)cc1 | – | -2.55% (inactive)
10 | CCOC(=O)c1c(-c2ccc(F)cc2)csc1NC(=O)CN1CCN(C)CC1 | > 15000 nM (inactive) | –
11 | Cc1ccccc1OCCn1c(=S)[nH]c2ccccc21 | 596 nM | –
12 | CCOc1ccc(OCCn2c(=S)[nH]c3ccccc32)cc1 | 880 nM | –
13 | Fc1ccccc1OCCn1c(=S)[nH]c2ccccc21 | 1770 nM | –
14 | S=c1[nH]c2ccccc2n1CCOc1ccc(Cl)cc1 | 270 nM | –
15 | Cc1ccc(OCCn2c(SCCO)nc3ccccc32)c(C(C)C)c1 | – | 18.7% (inactive)
16 | Cc1ccc(OCCn2c(=S)[nH]c3ccccc32)c(C(C)C)c1 | 334 nM and 155 nM | –
17 | O=c1[nH]c2ccccc2n1CCOc1ccccc1 | – | -3.24% (inactive) and 10.6% (inactive)
18 | COC(=O)C1=C(C)N(Cc2ccc(F)cc2)C(=S)NC1c1cccc(F)c1 (stereo not given) | 2300 nM | –
19 | Cc1ccc(OCCn2cnc3ccccc32)cc1 | 2860 nM | –
20 | CCOC(=O)c1c(-c2ccc(C(C)(C)C)cc2)csc1NC(=O)CN1CCN(C)CC1 | 6330 nM | –
21 | Cc1cccc(OCCn2c(=S)[nH]c3cc(C(F)(F)F)ccc32)c1 | 352 nM | –
22 | S=c1[nH]c2ccccc2n1CCOc1ccccc1 | 1630 nM | –
23 | CCOC(=O)c1c(-c2ccc(-c3ccccc3)cc2)csc1NC(=O)CNCCN(C)C | 6640 nM | –
24 | COC(=O)C1=C(C)N(Cc2ccc(Br)cc2)C(=S)NC1c1ccc(OC)cc1 (stereo not given) | 925 nM | –
25 | CCOC(=O)c1c(-c2ccc(C(C)(C)C)cc2)csc1NC(=O)CN1CCN(CC)CC1 | 6310 nM | –
26 | Cc1ccc2c(c1)[nH]c(=S)n2CCOc1ccccc1 | 211 nM | –
27 | Cc1ccc(OCCn2c(=S)[nH]c3ccccc32)cc1 | 703 nM | –
28 | CCOC(=O)c1c(-c2ccc(F)cc2)csc1NC(=O)CN1CCN(CC)CC1 | – | 20.2% (inactive)
29 | S=c1[nH]c2cccc(Cl)c2n1CCOc1ccccc1 | 851 nM | –
30 | Cc1ccc(OCCn2c(C)nc3ccccc32)cc1 | 1480 nM | –

From PubChem BioAssay AID743159 (Broad Institute, 2013)
